The values below come from patent US12156874B2, “Inhibitors of TRPC6” (Boehringer Ingelheim International GmbH, priority 2019, dated 2024).

The target of one experiment is T1, human TRPC6 (Homo sapiens, UniProt Q9Y210).
T1 construct: expressed in transfected cells; host or cells: HEK293
T1 sequence (Q9Y210 1-931): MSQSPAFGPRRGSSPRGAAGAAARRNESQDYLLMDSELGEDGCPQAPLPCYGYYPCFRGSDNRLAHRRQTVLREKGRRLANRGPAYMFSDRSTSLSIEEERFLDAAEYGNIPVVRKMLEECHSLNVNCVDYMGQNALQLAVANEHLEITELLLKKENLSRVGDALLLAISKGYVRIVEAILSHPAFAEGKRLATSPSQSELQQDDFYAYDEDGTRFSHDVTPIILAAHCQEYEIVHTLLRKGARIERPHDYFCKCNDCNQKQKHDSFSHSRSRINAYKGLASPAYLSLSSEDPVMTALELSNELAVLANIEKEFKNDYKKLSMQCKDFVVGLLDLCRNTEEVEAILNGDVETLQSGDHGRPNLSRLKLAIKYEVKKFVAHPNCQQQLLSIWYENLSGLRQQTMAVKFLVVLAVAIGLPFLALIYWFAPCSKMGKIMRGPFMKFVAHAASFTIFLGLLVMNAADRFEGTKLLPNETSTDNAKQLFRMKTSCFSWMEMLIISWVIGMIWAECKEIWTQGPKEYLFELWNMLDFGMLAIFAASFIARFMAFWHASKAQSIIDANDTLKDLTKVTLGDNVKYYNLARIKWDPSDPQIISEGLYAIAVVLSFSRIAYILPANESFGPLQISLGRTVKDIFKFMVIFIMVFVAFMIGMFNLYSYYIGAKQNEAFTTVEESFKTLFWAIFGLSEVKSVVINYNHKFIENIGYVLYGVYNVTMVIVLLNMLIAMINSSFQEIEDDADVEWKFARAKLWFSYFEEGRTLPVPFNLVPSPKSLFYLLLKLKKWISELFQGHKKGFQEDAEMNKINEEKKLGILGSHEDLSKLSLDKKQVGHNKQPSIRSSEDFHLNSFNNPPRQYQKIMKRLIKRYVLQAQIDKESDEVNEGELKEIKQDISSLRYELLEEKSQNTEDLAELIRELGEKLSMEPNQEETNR
In words: Assay A: Determination of TRPC6 inhibition, whole-cell patch clamp assay. The settings on record: 30 nM; HEK293 cells expressing human TRPC6; pre-incubated at least 3 h; average inward current densities vs vehicle; activated by 10 μM ethyl 8-fluoro-1H,2H,3H,4H,5H-pyrido[4,3-b]indole-2-carboxylate. Type of experiment: cell-based. The source says:
Assay A: Determination of TRPC6 Inhibition
HEK293 cells transfected with a plasmid expressing human TRPC6 are used for a patch clamp assay. Patch clamp experiments permit the detection of currents through TRPC6 channels in cellular systems as mentioned above. For whole-cell patch clamp recordings, a glass capillary electrode filled with electrolyte is brought into contact with a single cell and a high-resistance (gigaohm) seal is established with the cell membrane. The membrane is then ruptured to achieve the whole-cell configuration, permitting control of the intracellular electrical potential and measurement of electrical currents across the cell membrane using an amplifier connected to the electrode. A perfusion system permits control of the extracellular solution, including the addition of inhibitors and activators of TRPC6 channels. The TRPC6 current can be activated by 10 μM ethyl 8-fluoro-1H,2H,3H,4H,5H-pyrido[4,3-b]indole-2-carboxylate (commercially available, MFCD02930345) in the extracellular solution.
For the characterization of TRPC6 inhibitors, TRPC6 expression was induced for 20-48 hours, cells were removed from growth plates, and replated at low density (to attain good single-cell physical separation) in small dishes for measurement. Patch clamp recordings were performed in the whole-cell configuration at a holding potential of −40 mV. Every 1.5 seconds, a 400 ms voltage ramp was applied from −80 to +80 mV, flanked by 50 ms constant segments at −80 and +80 mV, respectively. TRPC6-mediated currents were quantified during those constant segments at −80 mV and +80 mV. The internal (pipette) solution consisted of 140 mM cesium aspartate, 10 mM EGTA, 1.91 mM CaCl2, 2.27 mM MgCl2 and 10 mM HEPES, pH 7.2 with CsOH, 40 nM calculated free Ca^2+. The external (bath) solution consisted of 145 mM NaCl, 4.5 mM KCl, 3 mM MgCl2, 10 mM HEPES, 10 mM glucose, 1 mM EGTA, pH 7.4 with NaOH. TRPC6 expressing cells were pre-incubated with potential inhibitors at either 30 nM or at various concentrations (for concentration-response-curves) or vehicle for at least 3 h and both maximal inward and outward currents were determined after addition of ethyl 8-fluoro-1H,2H,3H,4H,5H-pyrido[4,3-b]indole-2-carboxylate. Percent current inhibition was calculated from the average inward current densities of treated and vehicle cells. Current densities were calculated as absolute current normalized with respect to the individual cell's membrane capacitance as a surrogate parameter for cellular surface area. The number of cells measured for each group was chosen in a way that an average of 50% current inhibition with respect to the vehicle group would yield a statistically significant difference (p<0.05) in 90% of the cases based on the variability in current expression between cells. For the estimation of half-inhibitory concentrations, the Hill equation was fitted to the average % percent inhibition values at a series of concentrations of a specific compound.
(In general: Patch clamp records ionic current or voltage across a cell membrane.)

The subject of the next experiment is TRPC6. The settings on record: lung tissue of IPAH patients; cited from earlier work.
Another experiment relates to PASMC. The settings on record: cited from earlier work.

Each structure is given as a SMILES string.

Take `COc1ccc(Oc2cnc(C(=O)N3CCC(c4nnc(N)cc4C)CC3)cc2OC)cn1` [Compound 9, 6-(1-{4-Methoxy-5-[(6-methoxypyridin-3-yl)oxy]pyridine-2-carbonyl}piperidin-4-yl)-5-methylpyridazin-3-amine trifluoracetic acid]: at 0.03 µM the inhibition against human TRPC6 was 51%. For the compound `COc1ccc(Oc2ccc(C(=O)N3CC[C@H](c4nnc(N)cc4C)C[C@@H]3C)cc2)cn1` [Compound 1, 6-[(2S,4S)-1-{4-[(6-Methoxypyridin-3-yl)oxy]benzoyl}-2-methylpiperidin-4-yl]-5-methylpyridazin-3-amine trifluoroacetic acid], the inhibition – broadly, the relative decrease from the control value, in per cent – at 0.03 µM at human TRPC6 was found to be 81%. Compound `COc1cc(C(=O)N2CC[C@H](c3nnc(N)cc3C)C[C@@H]2C)ccc1Oc1ccc(C(F)(F)F)nc1` [Compound 4, 6-[(2S,4S)-1-(3-Methoxy-4-{[6-(trifluoromethyl)pyridin-3-yl]oxy}benzoyl)-2-methylpiperidin-4-yl]-5-methylpyridazin-3-amine] registered an inhibition at 0.03 µM at human TRPC6 of 12%.

Turning to `COc1ccccc1Oc1c(NS(=O)(=O)c2ccc(C(C)(C)C)cc2)nc(-c2ncccn2)nc1OCCO` [bosentan], in the experiment with TRPC6, the “expression of TRPC6” value is reported as “decreases expression of TRPC6”. The “proliferation of PASMC” value in the experiment on PASMC is listed as “decreases proliferation”.

On human TRPC6, `COc1ccc(Oc2cnc(C(=O)N3CCC(c4ccc(N)nn4)CC3)cc2OC)cn1` [Compound 5, 6-(1-{4-Methoxy-5-[(6-methoxypyridin-3-yl)oxy]pyridine-2-carbonyl}piperidin-4-yl)pyridazin-3-amine trifluoracetic acid] registered an inhibition at 0.03 µM of 27%. The same measure, in the same setting: as for `COc1ccc(Oc2ccc(C(=O)N3CCC(c4nnc(N)cc4C)CC3)cc2)cn1` [Compound 7, 6-(1-{4-[(6-Methoxypyridin-3-yl)oxy]benzoyl}piperidin-4-yl)-5-methylpyridazin-3-amine trifluoroacetic acid], the figure is 61%.

At human TRPC6, `COc1ccc(Oc2ccc(C(=O)N3CC[C@H](c4nnc(N)cc4C)C[C@@H]3C)cc2OC)cn1` [Compound 2, 6-[(2S,4S)-1-{3-Methoxy-4-[(6-methoxypyridin-3-yl)oxy]benzoyl}-2-methylpiperidin-4-yl]-5-methylpyridazin-3-amine] returned an inhibition at 0.03 µM of 60%.

`COc1ccc(Oc2ccc(C(=O)N3CCC(c4nnc(N)cc4C)CC3)cc2OC)cn1` [Compound 8, 6-(1-{3-Methoxy-4-[(6-methoxypyridin-3-yl)oxy]benzoyl}piperidin-4-yl)-5-methylpyridazin-3-amine trifluoroacetic acid] yielded an inhibition at 0.03 µM against human TRPC6 of 37%. The same measure, in the same setting: with `COc1ccc(Oc2ccc(C(=O)N3CC[C@@H](c4nnc(N)cc4C)[C@@H](C)C3)cc2OC)cn1` [Compound 6, 6-[(3R,4R)-1-{3-Methoxy-4-[(6-methoxypyridin-3-yl)oxy]benzoyl}-3-methylpiperidin-4-yl]-5-methylpyridazin-3-amine] the figure was 72%.
